Laboratory results as given in paper PMC9298352, “Design, Synthesis and Structural Analysis of Glucocerebrosidase Imaging Agents” (Chemistry (Weinheim an Der Bergstrasse, Germany), 2021).

What was measured:
[1] = target: T1, rhGBA (Homo sapiens, UniProt P04062); assay: Time-dependent labelling of rhGBA with galacto-ABP 7 and gluco-ABP 8 (SDS-PAGE, Cy5 fluorescence); format: biochemical; settings: rhGBA 700 nM, ABP 150 nM
T1 construct: made in house; host or cells: insect-baculovirus expression vector system (BEVS)
T1 sequence (P04062 40-536): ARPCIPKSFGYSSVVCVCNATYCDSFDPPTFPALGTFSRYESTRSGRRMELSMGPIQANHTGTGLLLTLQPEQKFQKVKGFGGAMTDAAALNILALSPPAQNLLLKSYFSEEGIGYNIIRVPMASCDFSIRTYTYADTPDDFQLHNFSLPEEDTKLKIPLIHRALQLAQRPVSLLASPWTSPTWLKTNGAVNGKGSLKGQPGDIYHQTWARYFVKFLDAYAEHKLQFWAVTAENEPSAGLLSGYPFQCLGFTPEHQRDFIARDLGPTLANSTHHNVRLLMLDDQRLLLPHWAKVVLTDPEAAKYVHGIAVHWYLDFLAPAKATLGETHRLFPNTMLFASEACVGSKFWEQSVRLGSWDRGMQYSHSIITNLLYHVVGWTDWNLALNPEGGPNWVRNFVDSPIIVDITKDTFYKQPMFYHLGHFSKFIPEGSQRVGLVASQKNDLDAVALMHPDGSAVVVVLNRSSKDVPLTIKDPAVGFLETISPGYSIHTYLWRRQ
Procedure: To rapidly investigate for cross‐reactivity with galacto‐configured cyclophellitol aziridines, time‐dependent labelling assays of rhGBA with galacto‐configured Cy5‐tagged aziridine ABP 7 were performed (Figure 3).
Figure 3 Time dependent labelling of rhGBA (700 nM) by Cy5‐tagged galacto‐ABP 7 (150 nM) after 2, 5, 10, 30 and 60 mins showing that labelling reaches saturation at 30 mins. In comparison, labelling by Cy5‐tagged gluco‐ABP 8 (150 nM) reaches saturation in 2mins. […] ABP labelled rhGBA (60 kDa) visualized by Cy5 fluorescent readout.
rhGBA produced in BEVS[58] was prepared at 700 nM in 150 mM McIlvaine buffer pH 5.2 (containing 0.1 % (v/v) Triton X‐100 and 0.2 % (w/v) sodium taurocholate) and ABP 7 or ABP 8 were added to 150 nM. The reactions were incubated at 37 °C and aliquots were taken at 2, 5, 10, 30 and 60 mins. The aliquots were immediately denatured with Laemmli (x3) sample buffer by heating at 95 °C for 5 minutes. The samples were resolved by electrophoresis in 10 % SDS‐PAGE gels, running at 200 V for ∼50 minutes. Wet slab gels were scanned on fluorescence using an AmershamTyphoon 5 Imager (GE Healthcare) with λEX 635 nm; λEM >665 nm.

[2] = system: GBA; settings: read-out: apparent IC50 for GBA; cited from earlier work

Structure (SMILES)	time to saturation of rhGBA labelling (Figure 3 legend) [1] [min]	time to saturation of rhGBA labelling ([1]; pH 5.2, 37 °C) [min]	time within which rhGBA is labelled ([1]; pH 5.2, 37 °C) [min]	IC50 [2] [nM]
C[N+]1=C(C=CC=CC=C2N(CCCCCC(=O)NCc3ccc(C4=C5C(C=NN4)C4CC(C(=O)NCCCCCCN6C7C(O)C(O)C(O)C(CO)C76)C5C4)cc3)c3ccccc3C2(C)C)C(C)(C)c2ccccc21 (stereo not shown) [ABP 7]	30	≤ 30	≤ 2	
OC[C@@H]1[C@@H](O)[C@H](O)[C@@H](O)[C@@H]2N[C@H]12 [compound 2, cyclophellitol aziridine]				500
